Read-outs that look alike come from different tables or passages of the source.
Tested on: mucous membrane (HET-CAM)
Assay: Mucous membrane compatibility, in vitro HET-CAM test, reaction time method
Description: Mucous membrane compatibility was evaluated by the in vitro HET-CAM test using the reaction time method (conc. 5% in 2×-distilled water, pH=6).

[1] = conc. 5% in 2×-distilled water, pH=6

| Substance | Irritation value Q | Evaluation [1] | Irritation value Q [1] | Evaluation |
| --- | --- | --- | --- | --- |
| mono-C12-glycerol ether+4EO ether carboxylic acid [Example 2] | 0.00 | – | – | – |
| mono-C12-glycerol ether carboxylic acid [Example 1] | – | Slightly irritating | 0.76 | – |
| Sodium Laureth Sulfate [Texapon ASV] | 1.0 | – | – | Moderately |
